Holding throughout (assay): Dundee protein kinase screen
Format in all cases: biochemical

In one experiment the target is T1, Aurora A (Homo sapiens, UniProt O14965).
T1 sequence (O14965 1-403): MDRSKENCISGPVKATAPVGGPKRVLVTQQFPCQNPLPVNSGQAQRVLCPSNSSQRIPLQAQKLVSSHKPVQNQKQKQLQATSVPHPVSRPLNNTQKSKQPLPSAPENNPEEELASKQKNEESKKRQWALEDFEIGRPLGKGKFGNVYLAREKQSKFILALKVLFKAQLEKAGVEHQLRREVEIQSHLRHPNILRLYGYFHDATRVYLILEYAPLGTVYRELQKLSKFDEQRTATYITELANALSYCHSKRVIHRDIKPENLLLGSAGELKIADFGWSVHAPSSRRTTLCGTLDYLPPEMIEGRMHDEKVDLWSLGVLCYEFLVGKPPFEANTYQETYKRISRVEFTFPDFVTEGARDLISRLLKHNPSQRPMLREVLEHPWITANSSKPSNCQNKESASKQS
The note with it: read-out: %Remaining activity at 1µM NU6300. How it is done:
(§1) Prior to determining its cellular activity, we carried out a screen to assess its selectivity against a panel of 131 protein kinases under conditions that would not distinguish between a reversible or irreversible mode of action. […] These 13 kinases and 29 additional kinases, selected for their known sensitivity to other inhibitors within the purine series, were then tested in a modified screening format in which the assay was repeated following a 4-hr pre-incubation (Table S3B). […] However, conformational flexibility around the active site may promote such an interaction with a residue from another part of the structure ([Martin et al., 2012]).
(§2) Table S3, Related to Figure 4. NCL-0006300 protein kinase selectivity. (A) NU6300 was tested at a single concentration of 1µM against 131 protein kinases present in a Dundee protein kinase screen (Bain et al., 2007). Values given are % activity remaining and are the average of duplicate measurements: 0-25% (red), 26-50% (yellow), 51-80% (black) and above 81% (green). The kinase domain sequences (as defined by UniProt) of […]
(§3) have a lysine residue at a position close to CDK2 Lys88 or Lys89. However, in the structure of tyrosine-protein kinase BTK (PDB ID: 3GEN) the residue equivalent to CDK2 Asp86 is Cys481 and therefore there is the potential for a covalent adduct to be formed through this side chain. […]

The target of a further experiment is BTK (Homo sapiens, UniProt Q06187). The note with it: read-out: %Remaining activity at 1µM NU6300. How it is done: as §1, §2, §3
For the next experiment, the target named is CDK2-Cyclin A (Homo sapiens, UniProt P24941). To be noted: read-out: %Remaining activity at 1µM NU6300. How it is done: as §1, §2, §3
Another experiment addresses CK1γ2 (Homo sapiens, UniProt P78368). The note with it: CK1γ2, 1µM; read-out: %Remaining activity at 1µM NU6300. How it is done:
as §1, §2, §3

A further experiment has as its target DDR2 (Homo sapiens, UniProt Q16832). The note with it: DDR2, 1µM; read-out: %Remaining activity at 1µM NU6300. How it is done:
as §1, §2, §3

Another experiment addresses GCK (Homo sapiens, UniProt Q12851). To be noted: read-out: %Remaining activity at 1µM NU6300. The procedure:
as §1, §2, §3

A further experiment deals with IGF-1R (Homo sapiens, UniProt P08069). The note with it: read-out: %Remaining activity at 1µM NU6300. The procedure: as §1, §2, §3
The target in the next experiment is IKKb (Homo sapiens, UniProt O14920). To be noted: read-out: %Remaining activity at 1µM NU6300. How it is done:
as §1, §2, §3

The target in another experiment is JNK2 (Homo sapiens, UniProt P45984). To be noted: JNK2, 1µM; read-out: %Remaining activity at 1µM NU6300. How it is done: as §1, §2, §3
Sequence of JNK2 (P45984 whole entry): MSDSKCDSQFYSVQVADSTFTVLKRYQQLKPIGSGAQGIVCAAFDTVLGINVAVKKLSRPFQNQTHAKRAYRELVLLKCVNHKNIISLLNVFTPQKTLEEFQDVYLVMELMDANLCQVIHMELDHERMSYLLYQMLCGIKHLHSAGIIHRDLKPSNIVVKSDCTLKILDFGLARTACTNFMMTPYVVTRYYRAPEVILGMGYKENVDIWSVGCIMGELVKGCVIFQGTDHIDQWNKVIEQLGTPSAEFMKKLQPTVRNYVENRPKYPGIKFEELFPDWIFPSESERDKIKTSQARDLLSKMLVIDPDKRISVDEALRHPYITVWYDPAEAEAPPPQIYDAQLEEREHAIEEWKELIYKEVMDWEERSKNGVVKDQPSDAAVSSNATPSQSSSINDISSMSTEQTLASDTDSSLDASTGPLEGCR
A further experiment has as its target MAPKAP-K3 (Homo sapiens, UniProt Q16644). To be noted: MAPKAP-K3, 1µM; read-out: %Remaining activity at 1µM NU6300. The procedure: as §1, §2, §3
Another experiment has as its target MARK1 (Homo sapiens, UniProt Q9P0L2). To be noted: MARK1, 1µM; read-out: %Remaining activity at 1µM NU6300. The procedure: as §1, §2, §3
The target of a further experiment is T2, MARK4 (Homo sapiens, UniProt Q96L34).
T2 sequence (Q96L34 1-752): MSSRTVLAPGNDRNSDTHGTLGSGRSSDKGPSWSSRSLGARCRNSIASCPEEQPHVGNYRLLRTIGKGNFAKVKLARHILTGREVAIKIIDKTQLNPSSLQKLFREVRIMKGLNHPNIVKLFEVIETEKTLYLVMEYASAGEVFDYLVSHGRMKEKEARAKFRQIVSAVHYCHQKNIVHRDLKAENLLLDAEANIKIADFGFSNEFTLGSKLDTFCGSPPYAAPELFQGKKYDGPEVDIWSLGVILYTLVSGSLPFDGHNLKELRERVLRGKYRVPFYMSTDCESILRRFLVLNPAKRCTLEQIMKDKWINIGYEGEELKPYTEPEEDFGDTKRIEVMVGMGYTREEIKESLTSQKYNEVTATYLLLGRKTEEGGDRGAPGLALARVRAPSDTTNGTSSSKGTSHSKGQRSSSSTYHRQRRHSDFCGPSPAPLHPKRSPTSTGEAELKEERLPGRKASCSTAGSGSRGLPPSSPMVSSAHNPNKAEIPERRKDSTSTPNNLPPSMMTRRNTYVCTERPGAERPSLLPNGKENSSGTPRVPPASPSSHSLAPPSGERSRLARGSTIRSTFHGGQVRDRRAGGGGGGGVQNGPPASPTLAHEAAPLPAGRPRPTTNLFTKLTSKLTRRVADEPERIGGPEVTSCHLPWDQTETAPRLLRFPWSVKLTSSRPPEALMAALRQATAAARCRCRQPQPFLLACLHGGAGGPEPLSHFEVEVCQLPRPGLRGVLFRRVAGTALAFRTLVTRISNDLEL
To be noted: MARK4, 1µM; read-out: %Remaining activity at 1µM NU6300. The procedure: as §1, §2, §3

The target in a further experiment is MELK (Homo sapiens, UniProt Q14680). To be noted: read-out: %Remaining activity at 1µM NU6300. The procedure:
as §1, §2, §3

Another experiment addresses MKK1 (Homo sapiens, UniProt Q02750). To be noted: MKK1, 1µM; read-out: %Remaining activity at 1µM NU6300. How it is done:
as §1, §2, §3

The next experiment addresses MLK1 (Homo sapiens, UniProt P80192). To be noted: MLK1, 1µM; read-out: %Remaining activity at 1µM NU6300. How it is done: as §1, §2, §3

Sequence of MARK1 (Q9P0L2 whole entry): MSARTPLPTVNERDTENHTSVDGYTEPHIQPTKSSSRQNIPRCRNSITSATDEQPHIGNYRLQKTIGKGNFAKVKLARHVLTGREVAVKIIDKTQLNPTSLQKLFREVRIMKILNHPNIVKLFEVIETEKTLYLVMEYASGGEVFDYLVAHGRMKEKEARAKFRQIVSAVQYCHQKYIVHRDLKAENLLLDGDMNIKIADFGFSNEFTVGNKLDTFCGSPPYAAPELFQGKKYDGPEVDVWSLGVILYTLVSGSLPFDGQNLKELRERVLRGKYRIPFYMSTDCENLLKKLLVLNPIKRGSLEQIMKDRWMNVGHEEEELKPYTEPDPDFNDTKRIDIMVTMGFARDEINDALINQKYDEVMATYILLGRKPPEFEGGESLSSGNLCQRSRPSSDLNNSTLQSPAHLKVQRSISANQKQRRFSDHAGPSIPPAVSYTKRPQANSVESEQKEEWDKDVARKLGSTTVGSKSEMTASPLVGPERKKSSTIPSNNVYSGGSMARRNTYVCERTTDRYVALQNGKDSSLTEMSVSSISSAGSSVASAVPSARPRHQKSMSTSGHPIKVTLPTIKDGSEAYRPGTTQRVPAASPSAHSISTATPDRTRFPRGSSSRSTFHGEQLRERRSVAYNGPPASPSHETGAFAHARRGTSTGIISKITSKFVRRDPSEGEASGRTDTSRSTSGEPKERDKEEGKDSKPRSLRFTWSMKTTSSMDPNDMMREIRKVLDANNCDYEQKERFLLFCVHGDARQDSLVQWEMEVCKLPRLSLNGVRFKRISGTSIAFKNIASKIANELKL
Sequence of DDR2 (Q16832 22-855): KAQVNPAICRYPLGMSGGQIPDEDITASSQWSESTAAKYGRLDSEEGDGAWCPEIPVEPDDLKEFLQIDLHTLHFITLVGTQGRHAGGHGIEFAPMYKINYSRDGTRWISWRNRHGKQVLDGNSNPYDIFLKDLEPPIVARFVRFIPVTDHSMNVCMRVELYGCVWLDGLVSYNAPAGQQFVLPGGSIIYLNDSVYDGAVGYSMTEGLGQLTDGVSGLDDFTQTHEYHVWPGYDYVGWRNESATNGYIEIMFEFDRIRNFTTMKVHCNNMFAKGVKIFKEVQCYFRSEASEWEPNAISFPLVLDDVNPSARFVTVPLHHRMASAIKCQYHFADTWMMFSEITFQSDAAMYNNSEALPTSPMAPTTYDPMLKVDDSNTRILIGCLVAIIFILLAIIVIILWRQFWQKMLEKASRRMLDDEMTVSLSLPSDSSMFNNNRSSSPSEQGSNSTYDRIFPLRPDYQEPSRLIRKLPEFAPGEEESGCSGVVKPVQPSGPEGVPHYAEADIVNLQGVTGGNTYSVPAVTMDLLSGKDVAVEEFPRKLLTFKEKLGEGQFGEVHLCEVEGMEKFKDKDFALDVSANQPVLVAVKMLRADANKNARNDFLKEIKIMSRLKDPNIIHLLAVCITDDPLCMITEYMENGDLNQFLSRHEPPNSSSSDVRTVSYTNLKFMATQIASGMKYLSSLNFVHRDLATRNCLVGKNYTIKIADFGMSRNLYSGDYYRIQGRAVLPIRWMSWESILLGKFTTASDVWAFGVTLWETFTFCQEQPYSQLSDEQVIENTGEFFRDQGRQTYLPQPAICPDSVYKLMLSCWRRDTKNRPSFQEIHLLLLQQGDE
Sequence of MLK1 (P80192 whole entry): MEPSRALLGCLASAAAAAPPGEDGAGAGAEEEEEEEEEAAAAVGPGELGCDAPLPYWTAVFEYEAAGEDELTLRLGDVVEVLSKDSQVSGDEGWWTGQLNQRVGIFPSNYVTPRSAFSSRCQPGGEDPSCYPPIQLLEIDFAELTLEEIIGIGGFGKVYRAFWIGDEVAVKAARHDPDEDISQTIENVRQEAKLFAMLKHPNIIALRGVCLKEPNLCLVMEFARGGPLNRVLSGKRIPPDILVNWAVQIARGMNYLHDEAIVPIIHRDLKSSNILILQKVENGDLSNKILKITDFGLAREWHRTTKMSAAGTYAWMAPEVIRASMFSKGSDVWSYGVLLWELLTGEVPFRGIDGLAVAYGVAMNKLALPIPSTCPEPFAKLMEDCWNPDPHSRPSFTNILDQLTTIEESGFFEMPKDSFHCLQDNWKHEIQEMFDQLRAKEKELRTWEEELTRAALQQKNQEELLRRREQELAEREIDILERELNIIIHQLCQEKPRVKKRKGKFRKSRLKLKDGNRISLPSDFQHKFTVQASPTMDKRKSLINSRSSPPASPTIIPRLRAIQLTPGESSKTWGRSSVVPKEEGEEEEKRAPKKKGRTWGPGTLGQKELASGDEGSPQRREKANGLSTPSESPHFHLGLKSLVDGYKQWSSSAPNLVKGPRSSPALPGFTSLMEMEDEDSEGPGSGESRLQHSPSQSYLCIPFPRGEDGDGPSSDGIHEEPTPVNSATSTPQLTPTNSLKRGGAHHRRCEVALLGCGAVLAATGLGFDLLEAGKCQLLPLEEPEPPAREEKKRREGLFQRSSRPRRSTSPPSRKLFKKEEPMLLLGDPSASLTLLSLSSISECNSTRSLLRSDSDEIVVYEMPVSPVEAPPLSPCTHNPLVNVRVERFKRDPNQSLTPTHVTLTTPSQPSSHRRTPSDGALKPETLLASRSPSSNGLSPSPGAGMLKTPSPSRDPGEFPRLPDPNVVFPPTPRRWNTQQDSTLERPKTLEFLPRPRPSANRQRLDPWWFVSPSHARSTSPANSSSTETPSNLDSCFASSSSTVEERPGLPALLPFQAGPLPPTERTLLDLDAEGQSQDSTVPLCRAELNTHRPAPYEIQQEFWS
Sequence of MKK1 (Q02750 whole entry): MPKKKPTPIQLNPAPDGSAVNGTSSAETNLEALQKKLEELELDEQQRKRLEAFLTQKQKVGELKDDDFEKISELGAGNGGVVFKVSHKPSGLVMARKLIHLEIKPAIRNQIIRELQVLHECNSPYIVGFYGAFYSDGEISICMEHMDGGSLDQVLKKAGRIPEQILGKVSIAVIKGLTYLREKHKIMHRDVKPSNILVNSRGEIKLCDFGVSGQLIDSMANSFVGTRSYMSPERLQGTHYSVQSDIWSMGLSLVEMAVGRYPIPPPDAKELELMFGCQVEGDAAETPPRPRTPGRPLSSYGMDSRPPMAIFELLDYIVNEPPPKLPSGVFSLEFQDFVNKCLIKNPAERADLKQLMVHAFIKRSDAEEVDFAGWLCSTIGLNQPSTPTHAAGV
Sequence of IKKb (O14920 whole entry): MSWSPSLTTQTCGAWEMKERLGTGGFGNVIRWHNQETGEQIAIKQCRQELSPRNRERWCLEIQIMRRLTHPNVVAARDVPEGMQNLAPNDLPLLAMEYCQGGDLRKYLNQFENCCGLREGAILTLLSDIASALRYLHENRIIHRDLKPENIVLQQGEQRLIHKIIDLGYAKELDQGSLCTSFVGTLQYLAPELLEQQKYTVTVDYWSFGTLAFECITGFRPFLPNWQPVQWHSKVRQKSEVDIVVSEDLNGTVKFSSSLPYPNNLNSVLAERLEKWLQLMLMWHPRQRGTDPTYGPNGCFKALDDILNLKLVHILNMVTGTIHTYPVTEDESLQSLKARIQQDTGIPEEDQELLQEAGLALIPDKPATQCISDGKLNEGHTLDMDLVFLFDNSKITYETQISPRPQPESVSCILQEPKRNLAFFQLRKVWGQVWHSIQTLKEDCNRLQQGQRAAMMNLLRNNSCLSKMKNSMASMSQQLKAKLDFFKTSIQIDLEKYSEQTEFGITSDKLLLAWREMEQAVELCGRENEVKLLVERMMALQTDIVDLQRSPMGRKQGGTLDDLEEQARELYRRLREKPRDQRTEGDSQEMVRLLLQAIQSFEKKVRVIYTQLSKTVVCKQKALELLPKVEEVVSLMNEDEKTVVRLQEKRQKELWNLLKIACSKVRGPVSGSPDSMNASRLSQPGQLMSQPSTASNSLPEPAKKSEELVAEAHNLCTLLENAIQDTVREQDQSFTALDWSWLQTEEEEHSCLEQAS
Sequence of MAPKAP-K3 (Q16644 whole entry): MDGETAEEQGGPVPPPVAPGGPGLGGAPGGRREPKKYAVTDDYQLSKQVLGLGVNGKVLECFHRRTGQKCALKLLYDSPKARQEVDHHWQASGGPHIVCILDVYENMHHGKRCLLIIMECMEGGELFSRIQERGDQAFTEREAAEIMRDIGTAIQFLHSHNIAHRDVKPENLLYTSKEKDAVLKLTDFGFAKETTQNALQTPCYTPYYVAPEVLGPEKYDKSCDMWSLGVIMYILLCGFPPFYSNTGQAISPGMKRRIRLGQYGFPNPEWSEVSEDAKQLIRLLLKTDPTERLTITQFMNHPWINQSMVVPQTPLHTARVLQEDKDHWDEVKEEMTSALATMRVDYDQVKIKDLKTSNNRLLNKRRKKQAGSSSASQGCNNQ

Consider `C=CS(=O)(=O)c1ccc(Nc2nc(OCC3CCCCC3)c3nc[nH]c3n2)cc1` [NU6300, 6-(cyclohexylmethoxy)-N-(4-(vinylsulfonyl)phenyl)-9H-purin-2-amine], for which the remaining activity – broadly, the share of the control activity or signal that is left under treatment – at 1 µM amounted to 18% at Aurora A; 17% on BTK; 27% at CDK2-Cyclin A; 79% at CK1γ2; 60% at DDR2; 26% on GCK. In addition, the remaining activity at 1 µM was determined as 79% at IGF-1R; 84% at IKKb; 88% on JNK2; 88% on MAPKAP-K3; 47% at MARK1; 37% at MARK4. In addition, the values for the remaining activity at 1 µM on MELK, at MKK1 and on MLK1 were 55%, 58% and 8%, respectively.

The record behind these values is publication PMC4579270, “Identification and Characterization of an Irreversible Inhibitor of CDK2” (Chemistry & Biology, 2015).
